Values quoted from earlier work as cited in patent US8617624B2, “Compositions, systems and methods for the diagnosis, prevention and treatment of disorders associated with azetidine-2-carboxylic acid” (priority 2006, dated 2013).

Tests used:
[1] = system: pigs
[2] = system: hamsters; conditions: exposure during pregnancy in hamsters
[3] = system: pregnant mice; conditions: fed to pregnant mice

Row | SMILES | increase in plasma proline concentration (1 mmol proline/kg lean body mass) | plasma proline increase when glucose also ingested (1 mmol proline/kg lean body mass with about 25 g of glucose) | absorption of proline (ingestion) | effect on wound healing [1] | teratogenic effect [2] | teratogenic effect [3]
1 | O=C(O)[C@@H]1CCCN1 [proline] | approximately 13 fold | decreased by half | readily absorbed | – | – | –
2 | O=C(O)C1CCN1 (stereo not drawn) [Aze, Azetidine-2-carboxylic acid] | – | – | – | delayed wound healing | fetal weight abnormalities, tissue hemorrhages, cleft palate, retarded ossifications, and shortened bones | predisposes to cleft palate
